Assay results as given in ChEMBL document CHEMBL1146794, “Novel delta2-isoxazolines as group II phospholipase A2 inhibitors” (Bioorg Med Chem Lett, 2004).

How the values were obtained:
[1] = Inhibitory activity against group II Phospholipase A2 (PLA2) from Vipera russelli russelli venom; parameters: species or system Daboia russelii russelii
[2] = Compound (2.5 uM) was tested for edema inducing activity of group II PLA2 (1 ug) was determined in mice footpads; format: functional, Daboia russelii russelii

## CCCCc1nc(C2=NOC(CO)C2)c(Cl)[nH]1 (stereo unspecified)
[1]
  IC50: 152 nM

## CCCCc1nc(C2=NOC(CC(=O)OC)C2)c(Cl)[nH]1 (stereo unspecified)
[1]
  IC50: 209 nM

## CCCCc1nc(C2=NOC(C(=O)OC)C2)c(Cl)[nH]1 (stereo unspecified)
[1]
  IC50: 250 nM

## CCCCc1nc(C2=NOC(C(=O)Oc3ccccc3)C2)c(Cl)[nH]1 (stereo unspecified)
[1]
  IC50: 195 nM

## CCCCc1nc(C2=NOC(C#N)C2)c(Cl)[nH]1 (stereo unspecified)
[2]
  Edema ratio: 120
[1]
  IC50: 96.4 nM

## CCCCc1nc(C2=NOC(c3ccccc3)C2)c(Cl)[nH]1 (stereo unspecified)
[1]
  IC50: 142 nM

## CCCCc1nc(C2=NOC(C(=O)OCC)C2)c(Cl)[nH]1 (stereo unspecified)
[2]
  Edema ratio: 116
[1]
  IC50: 86.2 nM

## C[C@H]1[C@H](C)CC[C@]2(C(=O)O)CC[C@]3(C)C(=CC[C@@H]4[C@@]5(C)CC[C@H](O)C(C)(C)[C@@H]5CC[C@]43C)[C@H]12 [URSOLIC ACID]
[2]
  Edema ratio: 102
[1]
  IC50: 2.5 nM
